In PubChem BioAssay (NCI):
Several values for one entry are separate records, joined by “and”; a condition that tells them apart may be missing. Identical values can stand only once.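 Exposure lasted 48 hours, with cells grown in 96-well plates and compounds tested at five concentrations. GI50 is the concentration that inhibits growth by half. The concentration for full growth arrest is given as TGI.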

Experiments:
Assay in all cases: NCI anticancer screen, dose series, 48 h
[1] = test system: ACHN renal
[2] = test system: CCRF-CEM leukemia
[3] = test system: HOP-62 NSCLC
[4] = test system: HT29 colon
[5] = test system: KM12 colon
[6] = test system: NCI-H522 lung
[7] = test system: NCI/ADR-RES ovarian
[8] = test system: OVCAR-8 ovarian
[9] = test system: SK-MEL-28 melanoma
[10] = test system: SR leukemia

Compound | GI50 [1] | TGI [1] [µM] | GI50 [2] | TGI [2] [µM] | GI50 [3] | TGI [3] | GI50 [4] | TGI [4] | GI50 [5] | TGI [5] [µM] | GI50 [6] | TGI [6] | GI50 [7] | TGI [7] [µM] | GI50 [8] | TGI [8] [µM] | GI50 [9] | TGI [9] | GI50 [10] | TGI [10] [µM]
COc1ccc(-c2nn(-c3cccc(Cl)c3)cc2-c2c(C#N)c(=O)n3[nH]c(-c4ccc(C)cc4)nc3c2C#N)cc1 | 2.41 µM | 12.6 | 1.23 µM | > 50 | 0.884 µM | 2.19 µM | 1.49 µM | > 50 µM | 3.39 µM | 24.2 | 1.45 µM | 4.89 µM | 9.43 µM | 37.5 | 0.818 µM | 2.99 | 6.55 µM | 13.2 µM | 1.43 µM | 10.1
Cc1cccc(Cl)c1NC(=O)c1cnc(Nc2cc(N3CCOCC3)cc(N3CCOCC3)c2)s1 | 0.00887 µM | 0.171 | > 6.27 µM | > 10 | 0.022 µM | > 10 µM | 0.0181 µM | 0.19 µM | > 6.22 µM | > 10 | 0.0307 µM | > 5.79 µM | 1.05 µM | > 10 | 0.0842 µM | > 10 | > 5.32 µM | > 10 µM |  | > 10
CC(C)[NH-].CC(C)[NH-].O.O.[Cl][Pt+2][Cl] | 14.1 µM | 107 | 6.59 µM | 97.7 | 55.8 µM | 194 µM | 12.7 µM | 83.8 µM | 96.1 µM | 251 | 20.4 µM | 74.2 µM | 60.9 µM | 343 | 36.5 µM | 167 | 46.8 µM | 197 µM | 17.8 µM | 53.5
Cn1c(/C=C(\C#N)c2cccc(C(F)(F)F)c2)nc2c(N3CCOCC3)nc(Cl)nc21 | 0.444 µM | 1.57 | 0.23 µM | 0.75 | 1.45 µM | 3.2 µM | 0.369 µM | 1.38 µM | 1.82 µM | 3.58 | 0.657 µM | 2.32 µM | 1.72 µM | 6.72 | 0.567 µM | 2.16 | 1.48 µM | 2.86 µM | 0.337 µM | 1.86
COc1ccc2nc3cc([N+](=O)[O-])ccc3c(NCCCN(CCO)CCO)c2c1 | 10 µM | 23 | 3.78 µM | 14.6 | 11.4 µM | 24.1 µM | 2.03 µM | 5.21 µM | 2.64 µM | 9.97 | 1.36 µM | 2.86 µM | 15.9 µM | 39.9 | 3.31 µM | 11.2 | 3.93 µM | 13 µM | 1.97 µM | 14.3
N#Cc1ccc(C2C3=C(CCCC3=O)OC3=C2C(=O)c2ccccc2C3=O)cc1 (stereo not drawn) | 1.55 µM | 2.89 | 0.951 µM | > 100 | 1.95 µM | 3.78 µM | 2.91 µM | 8.04 µM | 3.14 µM | 12.9 | 1.99 µM | 4.31 µM | 0.899 µM | 7.81 | 0.722 µM | 4.79 | 1.82 µM | 3.3 µM | 3.47 µM | > 100
O=C1c2cc(-c3ccccc3)ccc2-c2c1c1ccc([N+](=O)[O-])cc1c(=O)n2CCCBr | > 36.3 µM | > 50 | 0.16 µM | 0.6 | > 30.2 µM | > 50 µM | > 50 µM | > 50 µM | > 50 µM | > 50 | > 50 µM | > 50 µM | > 50 µM | > 50 | > 50 µM | > 50 | > 50 µM | > 50 µM |  | > 15.1
COc1cc(F)cc([C@@H](CO)NC(=O)[C@@H](C)N2Cc3ccc(-c4nc(NC5CCOCC5)ncc4Cl)cc3C2=O)c1 | 1.54 µM | 99.1 | 17.1 µM | > 92.8 | 0.0519 µM | > 86.2 µM | < 0.01 µM | > 54.2 µM | 0.0988 µM | 37.4 | 13.4 µM | 60.4 µM | 16.3 µM | 78.2 | 13.6 µM | 64.8 | < 0.01 µM | 0.0318 µM | 10.8 µM | 70.7
COc1ccc(-c2cn(-c3cccc(C(=O)/C=C/c4ccc(O)c(OC)c4)c3)c(=O)[nH]2)cc1 | 2.55 µM | 6.22 | 1.19 µM | 5.81 | 8.85 µM | > 100 µM | 2.99 µM | > 22.7 µM | 1.7 µM | 3.57 | 2.6 µM | 10.7 µM | 2.97 µM | > 31.4 | 3.58 µM | > 49.6 | 1.99 µM | 4.51 µM | 2.24 µM | > 100
O=CC(Br)C(Br)c1ccccc1 (stereo not drawn) | 1.64 µM | 3.12 | 0.374 µM | 1.94 | 13.3 µM | 27.8 µM | 1.71 µM | 3.19 µM | 12.6 µM | 26 | 1.72 µM | 3.56 µM | 4.77 µM | 27.7 | 2.95 µM | 10.2 | 2.31 µM | 6.35 µM | 0.445 µM | 2.81
CN1CCC(C(=O)Nc2n[nH]c3nc(-c4ccc(O)cc4)c(Br)cc23)CC1 | 5.37 µM and 6.3 µM | > 25 | 0.835 µM and 0.996 µM | > 25 | 2.39 µM and 2.43 µM | > 22.6 µM and 15.8 µM | 4.11 µM and 5.33 µM | 12.1 µM and 16.1 µM | 1.82 µM and 1.49 µM | > 25 | 0.599 µM and 0.603 µM | 1.52 µM and 1.62 µM | 24.9 µM and > 25 µM | > 25 | 0.965 µM and 1.77 µM | > 20.2 | 1.21 µM and 2.46 µM | 6.15 µM and 7.56 µM | 0.701 µM and 0.306 µM | > 25
